Experimental data as given in patent publication US20110028758A1, “Trans-cinnamic acid derivative, its preparation mathod and the use” (priority 2007, published 2011).
≈ marks a conversion by molar mass, not a printed value. Entries after “also recorded” stand apart in the source; their conditions may differ. Like-named read-outs stand apart in the source and are kept apart here.

How the values were obtained:
[1] = system: mucinous Human epidermoid A549 lung cancer cells; test: MTT anti-tumor test in vitro, A549; type: cell-based; conditions: Homo sapiens, A549, 48 h
From the text: (§1) A complete culture medium is used for diluting the above original solution into corresponding concentrations for later use.
(§2) Human cervical carcinoma Hela cells, human hepatoma BEL-7402 cells, mucinous Human epidermoid A549 lung cancer cells, human breast cancer MCF-7/S cells, human glioma U251 cells, and human normal embryonic kidney HEK-293 cells are purchased from USA, American Type Culture Collection (ATCC). All the tumor cells are used the DMEM medium (containing 10% FBS, 100 U/ml penicillin and 100 μg/ml streptomycin) for culturing and subculturing, and HEK-293 cells are using RPMI1640 medium (10% FBS, 100 U/ml penicillin, and 100 μg/ml streptomycin) for culturing and subculturing, wherein the culture condition is in a 5% CO2 incubator at 37° C.
(§3) Subculture six kinds of cells, which has a logarithmic growing period, adherent rate about 80%, and in good condition, such as human cervical carcinoma Hela cells, human hepatoma BEL-7402 cells, mucinous Human epidermoid A549 lung cancer cells, human breast cancer MCF-7/S cells, human glioma U251 cells, and human normal embryonic kidney HEK-293 cells. Discard the culture medium, rinse 1-2 times with PBS to remove serum, add 1 ml 0.25% Trypsin-0.01% EDTA (37° C. incubation) to digest for 1-2 minutes, add FBS culture medium to terminate the above digestion, centrifuge at a speed below 800 r/min for 2-3 minutes and discard the supernatant, re-suspended cells in 10% FBS medium, tack the cell suspension liquid for cell counting, adjust the density of the above liquid to 1×10^5/ml, then inoculate to a 96-holes plates (100 μl/hole), and then incubate in 5% CO2 incubator at 37° C. overnight. The next day add above cells to different concentrations of I-a, I-b, I-c and I-d, 100 μl/hole (its final concentration is respectively 30, 60, 120, 240, 480 μg/ml); meanwhile, set up the blank control group (0 μM), and establish 3 holes. Continuing the cultural process, discard the culture medium after 48 hours that the drug has been effected, add 100 μl PBS of 0.5 mg/ml MTT (PH 7.2) into each holes, after 4 hours culture, remove the culture medium by adherent cells express flipping method, add 100 μl of DMSO to each holes, oscillate it by micro-oscillation device for 5 minutes, and measure the OD value at 490 nm wavelength. Repeat the above experiment three times to get an average value. Calculate the inhibition rate (IR %) of the tumor cell proliferation in vitro from different concentrations of I-a, I-b, I-c, I-d by the following formula:
(§4) IR %=(1−ODsampale/ODcontrol)×100%
(§5) Use SPSS11.5 software to calculate the half inhibitory concentration IC50 of I-a, I-b, I-c and I-d. The results are shown in Table 2 to illustrate IC50 values (unit: μg/ml) of the four compounds.

human glioma U251 cells = test: MTT anti-tumor test in vitro, U251; type: cell-based; conditions: Homo sapiens, U-251, 48 h
From the text: as §1, §2, §3, §4, §5

[2] = single tail vein administration 350 mg/kg; for death / survival in acute toxicity test: 14 days observation, 350 mg/kg
Description: After the drug delivery, continuously observe the mice responses for 4 hours; after all, observe the mice twice a day (one is in the morning, and the other is in the afternoon) for 14 days, wherein the observation includes the appearance, behavior, secretions, excreta of the mice etc., and recording all the death situation, poisoning symptoms, the starting time and ending time of toxic reactions of the mice, severity, duration time of toxic, and to see if it is reversible reaction etc., sent it to the pathology examination if necessary, weight the mice before and after the drug delivered day of 3, 7, 10, and 14 days. After finishing the observation process, execute all of the mice, and anatomize the dead bodies of mice.

[3] = From the text: The 180 tumor-bearing mice are divided into 18 groups by the weigh of the mice, wherein each group has 10 mice (half male and half female). The drug delivery methods of each group are shown in Table 3 to illustrate eighteen groups of mice drug delivery situation.
Group 2 is the cyclophosphamide (CTX) group, and the mice of group 2 are only given the cyclophosphamide in the intraperitoneal of the mice on the second day of the tumor-bearing.
Group 3 to 18 groups are given the four compounds respectively, wherein the groups delivered 25 mg/kg drug are tail vein low-dose group, wherein the groups delivered 50 mg/kg drugs are the tail vein medium-dose group, wherein the groups delivered 100 mg/kg drugs are the tail vein high-dose group, wherein the groups delivered 200 mg/kg drugs are the oral enteral group. These mice from group 3 to 18 start the drug delivery on the second day of the tumor-bearing, and delivered once a day for 10 sequent days.
After the drug delivery, weight the mice weight, then execute the mice, and then weight the spleen and thymus weight by electronic weighting scale respectively. The spleen index and thymus index are the weight (mg) of mice spleen, thymus of each group/mice weight (g).

[4] = A549, average of three experiments ± SD, MTT, 48 hours, read-out: IC50 value
[5] = A549, experiment 1, MTT, 48 hours, read-out: IC50 value
[6] = A549, experiment 2, MTT, 48 hours, read-out: IC50 value
[7] = A549, experiment 3, MTT, 48 hours, read-out: IC50 value
[8] = at 48 hours, read-out: A549 cell proliferation IC50 values
[9] = average of three experiments ± SD

Structure (SMILES) | IC50 [1, 4] | IC50 [1, 5] | IC50 [1, 6] | IC50 [1, 7] | IC50 [1, 8] | IC50 (human glioma U251 cells; [9]) | IC50 (human glioma U251 cells; experiment 1) | IC50 (human glioma U251 cells; experiment 2) | IC50 (human glioma U251 cells; experiment 3) | drug reaction after administration [2] | death / survival in acute toxicity test [2] | effect near the tail vein of the mice and its surrounding tissue ([3]; mouse, in vivo) | splenomegaly of the tumor-bearing mice ([3]; mouse, in vivo) | death during drug delivery ([3]; high-dose group, tail vein 100 mg/kg, 10 days)
COc1ccc(/C=C\C(=O)O)c(OC)c1CC=C(C)C [I-b, (Z)-2,4-dimethoxy-3-isopentenyl-cinnamic acid] | 218 ± 12.6 µg/mL (≈ 788 µM) | 230 µg/mL (≈ 832 µM) | 216 µg/mL (≈ 782 µM) | 205 µg/mL (≈ 742 µM) | 218 ± 12.6 µg/mL (≈ 788 µM) | 287 ± 9.58 µg/mL (≈ 1040 µM) | 277 µg/mL (≈ 1000 µM) | 284 µg/mL (≈ 1030 µM) | 298 µg/mL (≈ 1080 µM) | abnormally excited at first, and then become in an inhibit state | All the mice are survived; also recorded: no toxic deaths |  |  | 
COc1ccc(/C=C/C(=O)O)c(OC)c1CC=C(C)C [I-c, (E)-2,4-dimethoxy-3-isopentenyl-cinnamic acid] | 158 ± 5.66 µg/mL (≈ 572 µM) | 151 µg/mL (≈ 546 µM) | 162 µg/mL (≈ 586 µM) | 159 µg/mL (≈ 575 µM) | 158 ± 5.66 µg/mL (≈ 572 µM) | 195 ± 7.31 µg/mL (≈ 704 µM) | 202 µg/mL (≈ 731 µM) | 192 µg/mL (≈ 695 µM) | 188 µg/mL (≈ 680 µM) | abnormally excited at first, and then become in an inhibit state | All the mice are survived; also recorded: no toxic deaths | irritation or corrosive | can cause the splenomegaly | 
COc1ccc(/C=C/C(=O)O)c(O)c1CC=C(C)C [I-a, (E)-2-hydroxy-4-methoxy-3-isopentenyl-cinnamic acid] | 118 ± 10.6 µg/mL (≈ 451 µM) |  | 118 µg/mL (≈ 450 µM) | 107 µg/mL (≈ 408 µM) | 118 ± 10.6 µg/mL (≈ 451 µM) | 181 ± 7.98 µg/mL (≈ 691 µM) |  | 173 µg/mL (≈ 660 µM) | 180 µg/mL (≈ 686 µM) | abnormally excited at first, and then become in an inhibit state | All the mice are survived; also recorded: no toxic deaths |  | no affect | does not have any death
